# Laboratory results published in paper PMC6915728 (Nature Communications, 2019).
# Tested on: E. coli essential gene hypomorphic alleles
# Experiment: Chemical-genetic screen of 279 essential gene hypomorphs on high-density agar plates (AMPs and antibiotics)
# Type: cell-based, Escherichia coli
# Conditions: folA hypomorphic allele, sub-inhibitory AMP (50% growth inhibition of wild type), 32 °C, 20 h
# Text: Chemical-genetic profiling based on gene depletion captures a different aspect of resistance determinants than gene overexpression. […] To investigate the intrinsic AMP resistome, we initiated a chemical-genetic screen with a set of 279 partially depleted essential genes (hypomorphic alleles; see Methods) of E. coli. […] Then, using a well-established high-density agar plate assay[19],[33], we determined their chemical-genetic interaction profiles across the hypomorphic alleles (Supplementary Data 5). […]
# Analogous to our E. coli synthetic genetic array approach, our chemical-genetics screening strategy involves robotic pinning of each Kan^R marked single essential gene hypomorph arrayed in 384 colony format on Luria Broth (LB) medium, in quadruplicate, onto the minimal medium containing AMPs under a selected concentration, in two replicates, generating eight replicates in total for each essential gene hypomorph. […] The normalized colony sizes from the AMP plate was subtracted from their corresponding colony screened without AMP to estimate the final hypomorphic-strain fitness score (sensitive or resistant), which is as an average of all eight replicate measurements recorded for each hypomorphic allele. A z-score distribution based p-value was calculated for all interactions and those with p ≤ 0.05 were deemed as significant interactions. […]
sequence,measurement,value
"RRRPRPPYLPRPRPPPFFPPRLPPRIPPGFPPRFPPRFP [PR39, PR-39, cathelicidin, source pig; cluster C4]",Effect of folA depletion on susceptibility,sensitivity
